Data: ChEMBL document CHEMBL1153077, “Highly tractable, sub-nanomolar non-steroidal glucocorticoid receptor agonists” (Bioorg Med Chem Lett, 2009)

Tests used:
[1] = target: T1, Glucocorticoid receptor (Homo sapiens, UniProt P04150)
T1 sequence (P04150 whole entry): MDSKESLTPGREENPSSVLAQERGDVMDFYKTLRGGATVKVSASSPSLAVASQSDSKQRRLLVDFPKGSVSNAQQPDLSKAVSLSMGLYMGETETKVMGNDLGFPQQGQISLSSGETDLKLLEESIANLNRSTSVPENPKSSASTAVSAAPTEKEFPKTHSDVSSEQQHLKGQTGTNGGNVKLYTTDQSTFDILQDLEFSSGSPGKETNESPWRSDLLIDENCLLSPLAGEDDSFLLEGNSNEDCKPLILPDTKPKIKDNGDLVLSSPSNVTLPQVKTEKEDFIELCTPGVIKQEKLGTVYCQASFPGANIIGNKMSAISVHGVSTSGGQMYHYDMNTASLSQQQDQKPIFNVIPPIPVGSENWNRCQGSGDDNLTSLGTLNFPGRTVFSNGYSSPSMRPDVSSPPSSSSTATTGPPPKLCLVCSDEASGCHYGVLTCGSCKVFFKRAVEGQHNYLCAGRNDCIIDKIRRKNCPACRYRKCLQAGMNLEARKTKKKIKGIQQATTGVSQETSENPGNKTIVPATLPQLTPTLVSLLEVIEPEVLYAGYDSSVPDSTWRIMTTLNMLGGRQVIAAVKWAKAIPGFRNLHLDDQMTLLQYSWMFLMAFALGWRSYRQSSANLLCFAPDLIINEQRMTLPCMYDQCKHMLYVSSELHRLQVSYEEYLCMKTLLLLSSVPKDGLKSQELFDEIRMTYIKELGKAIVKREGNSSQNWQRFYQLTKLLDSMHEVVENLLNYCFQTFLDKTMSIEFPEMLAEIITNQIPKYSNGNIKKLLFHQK

[2] = Selectivity ratio of pIC50 for androgen receptor to pIC50 for human glucocorticoid receptor
[3] = Selectivity ratio of pIC50 for progesterone receptor to pIC50 for human glucocorticoid receptor
[4] = Selectivity ratio of pIC50 for estrogen receptor to pIC50 for human glucocorticoid receptor

Row | SMILES | IC50 [1] [nM] | Ratio pIC50 [2] | Ratio pIC50 [3] | Ratio pIC50 [4]
1 | CCC1(CC(O)(CNC(=O)c2cnn(-c3ccccc3)c2N)C(F)(F)F)CCCc2ccccc21 (racemic) | 1.58 | – | – | –
2 | CCN(CC(O)(CNc1cccc2c1cnn2-c1ccc(F)cc1)C(F)(F)F)C(=O)c1c(C)cccc1C (racemic) | 0.501 | > 50 | > 50 | > 50
3 | CCN(CC(O)(CNc1cccc2c1cnn2-c1ccc(F)cc1)C(F)(F)F)C(=O)c1ccccc1F (racemic) [listing 1 of 2 here] | 0.2 | – | – | –
4 | CCN(CC(O)(CNc1cccc2c1cnn2-c1ccc(F)cc1)C(F)(F)F)C(=O)c1c(F)cccc1F (racemic) | 0.316 | > 50 | > 50 | > 50
5 | CCCN(CC(O)(CNc1cccc2c1cnn2-c1ccccc1)C(F)(F)F)C(=O)c1ccccc1 (racemic) | 3.16 | > 50 | > 50 | > 50
6 | CCN(CC(O)(CNc1cccc2c1cnn2-c1ccccc1)C(F)(F)F)C(=O)c1ccccc1F (racemic) | 0.316 | > 50 | > 50 | > 50
7 | CCN(CC(O)(CNc1cccc2c1cnn2-c1ccccc1)C(F)(F)F)S(=O)(=O)c1ccccc1 (racemic) | 2.51 | > 50 | > 50 | > 50
8 | CN(CC(O)(CNc1cccc2c1cnn2-c1ccccc1)C(F)(F)F)C(=O)c1ccccc1 (racemic) | 5.01 | > 50 | > 50 | > 50
9 | CCN(CC(O)(CNc1cccc2c1cnn2-c1ccc(F)cc1)C(F)(F)F)C(=O)c1ccccc1 (racemic) | 0.794 | > 50 | > 50 | > 50
10 | CCN(CC(O)(CNc1nc(C)nc2c1cnn2-c1ccccc1)C(F)(F)F)S(=O)(=O)c1ccc(F)cc1 (racemic) | 25.1 | > 50 | > 50 | > 50
11 | CCN(CC(O)(CNC(=O)c1cnn(-c2ccccc2)c1N)C(F)(F)F)S(=O)(=O)c1ccc(F)cc1 (racemic) | 31.6 | > 50 | > 50 | > 50
12 | CCN(CC(O)(CNc1cccc2c1cnn2-c1ccc(F)cc1)C(F)(F)F)C(=O)c1c(Cl)cccc1Cl (racemic) [listing 2 of 2 here] | – | > 50 | > 50 | > 50
13 | CCN(CC(O)(CNc1cccc2c1cnn2-c1ccc(F)cc1)C(F)(F)F)C(=O)c1ccccc1F (racemic) [listing 2 of 2 here] | – | > 50 | > 50 | > 50
14 | CCN(CC(O)(CNc1cccc2c1cnn2-c1ccc(F)cc1)C(F)(F)F)C(=O)c1ccccc1F (stereo in doubt; 32E1) [listing 1 of 2 here] | 0.126 | – | – | –
15 | CCN(CC(O)(CNc1cccc2c1cnn2-c1ccc(F)cc1)C(F)(F)F)C(=O)c1ccccc1F (stereo in doubt; 32E2) [listing 1 of 2 here] | 31.6 | – | – | –
16 | CCN(CC(O)(CNc1cccc2c1cnn2-c1ccc(F)cc1)C(F)(F)F)C(=O)c1c(Cl)cccc1Cl (stereo in doubt; 38E1) [listing 1 of 2 here] | 0.0794 | – | – | –

Second part, the compound after the results:

Row | IC50 [1] [nM] | Ratio pIC50 [2] | Ratio pIC50 [3] | Ratio pIC50 [4] | SMILES
17 | 0.316 | > 50 | > 50 | > 50 | CCN(CC(O)(CNc1cccc2c1cnn2-c1ccc(F)cc1)C(F)(F)F)C(=O)c1ccccc1C (racemic)
18 | 0.126 | – | – | – | CCN(CC(O)(CNc1cccc2c1cnn2-c1ccc(F)cc1)C(F)(F)F)C(=O)c1c(Cl)cccc1Cl (racemic) [listing 1 of 2 here]
19 | 7.94 | > 50 | > 50 | > 50 | CCN(CC(O)(CNc1cccc2c1cnn2-c1ccccc1)C(F)(F)F)S(=O)(=O)c1ccc(F)cc1 (racemic)
20 | 0.398 | > 50 | > 50 | > 50 | CCN(CC(O)(CNc1cc(C)cc2c1cnn2-c1ccccc1)C(F)(F)F)C(=O)c1ccccc1 (racemic)
21 | 0.251 | > 50 | > 50 | > 50 | CCN(CC(O)(CNc1cc(C)cc2c1cnn2-c1ccccc1)C(F)(F)F)C(=O)c1ccccc1F (racemic)
22 | 0.398 | > 50 | > 50 | > 50 | CCN(CC(O)(CNc1cc(C)cc2c1cnn2-c1ccc(F)cc1)C(F)(F)F)C(=O)c1ccccc1 (racemic)
23 | 0.794 | > 50 | > 50 | > 50 | CCN(CC(O)(CNc1cccc2c1cnn2-c1ccccc1)C(F)(F)F)C(=O)c1ccccc1 (racemic)
24 | 0.251 | > 50 | > 50 | > 50 | CCN(CC(O)(CNc1cccc2c1cnn2-c1ccc(F)cc1)C(F)(F)F)C(=O)c1ccccc1Cl (racemic)
25 | 0.2 | > 50 | > 50 | > 50 | CCN(CC(O)(CNc1cc(C)cc2c1cnn2-c1ccc(F)cc1)C(F)(F)F)C(=O)c1ccccc1F (racemic)
26 | – | > 50 | > 50 | > 50 | CCN(CC(O)(CNc1cccc2c1cnn2-c1ccc(F)cc1)C(F)(F)F)C(=O)c1ccccc1F (stereo in doubt; 32E1) [listing 2 of 2 here]
27 | – | > 50 | > 50 | > 50 | CCN(CC(O)(CNc1cccc2c1cnn2-c1ccc(F)cc1)C(F)(F)F)C(=O)c1ccccc1F (stereo in doubt; 32E2) [listing 2 of 2 here]
28 | – | > 50 | > 50 | > 50 | CCN(CC(O)(CNc1cccc2c1cnn2-c1ccc(F)cc1)C(F)(F)F)C(=O)c1c(Cl)cccc1Cl (stereo in doubt; 38E1) [listing 2 of 2 here]
29 | 10 | – | – | – | CCN(CC(O)(CNc1cccc2c1cnn2-c1ccc(F)cc1)C(F)(F)F)C(=O)c1c(Cl)cccc1Cl (stereo in doubt; 38E2) [listing 1 of 2 here]
30 | – | > 50 | > 50 | > 50 | CCN(CC(O)(CNc1cccc2c1cnn2-c1ccc(F)cc1)C(F)(F)F)C(=O)c1c(Cl)cccc1Cl (stereo in doubt; 38E2) [listing 2 of 2 here]
